Key:
[1] = test system: TNF-α production by LPS stimulated mouse peritoneal macrophages; assay: TNF-α production inhibitory activity by LPS stimulated macrophages (ELISA); format: cell-based; conditions: Peritoneal macrophage, LPS 10 μg/ml, 8 hours
Method: (1) Method of Measurement of TNF-α Production Inhibitory Activity by LPS Stimulated Macrophages
The following assay was used to evaluate the ability of the compound of the present invention to suppress TNF-α production by LPS stimulated macrophages according to Immuno pharmacol. 29, 121-127 (1995).
1) 6 to 10 week old female BALB/c mice were used, 2 ml portions of thioglycolate were intraperitoneally administered, and the abdominal cavities were washed by 10 ml of PBS after 4 days, whereby 1 to 2×10^7 peritoneal cells were obtained per mouse. These were suspended in a hemocyte solution (0.75% ammonium chloride, 17 mM tris-hydrochlorate buffer, pH7.2), centrifuged, then resuspended in an RPMI1640 medium including 10% fetal calf serum and seeded in a 96-well cell culture plate at a density of 1×10^5 cells/50 μl/well. Since these cells adhered strongly to the tissue culture plate and were positive in nonspecific esterase staining, they were used for the test as mouse peritoneal macrophages. Mouse peritoneal macrophages were precultured overnight at 37° C. in 5% CO2 for the experiment.
2) E. Coli (serum type 055:B5) derived LPS was dissolved in PBS in a concentration of 1 mg/ml, then sterilized by filtration. The test compound was dissolved in DMSO to make a 1000-fold concentration solution of the final concentration of use. 10 μl of the above LPS stock solution (final concentration 10 μg/ml) and 1 μl of the tested substance stock solution were added and mixed in 0.5 ml of RPMI1640 medium containing 10% fetal calf serum. This was added to the above cells at 50 μl/well and cultured for 8 hours. The cultured supernatant was recovered from each well and the TNF-α concentration was measured by the ELISA method (Cytoscreen® Immunoassay Kit Mouse TNF-α, BioSource International).

[2] = test system: type IV phosphodiesterase; assay: Type IV phosphodiesterase inhibiting activity (3H-cAMP hydrolysis, PDE IV fraction from U937 cells); format: biochemical; conditions: PDE IV fraction from human U937 cells, 30° C., 30 minutes
Method: (1) Method of Measurement of Type IV Phosphodiesterase Inhibiting Activity
The following assay was used to evaluate the ability of the compound of the present invention to suppress type IV phosphodiesterase, according to Biochemical.
1) Type IV phosphodiesterase activity fractions were prepared as follows. Human histiocytic lymphoma cell line U937 was cultured in an RPMI1640 medium containing 10% fetal calf serum to obtain 10^9 cells of U937. The cells were recovered by centrifugation and suspended in 40 ml of buffer A (20 mM bis-tris, 5 mM 2-mercaptoethanol, 2 mM benzamidine, 2 mM EDTA, 0.1 mM 4-(2-aminoethyl)benzensulfonyl hydrochloride, 50 mM sodium acetate, pH=6.5). The cells were broken by a sonication and centrifuged (4° C., 10,000G, 10 minutes) to obtain a supernatent. This was filtered by a 0.45 μm filter to obtain the soluble fraction.
The soluble fraction obtained was applied into a 1×10 cm DEAE Sepharose column equalibrated with the buffer A. 120 ml of the buffer A containing a linear gradient solution of 0.05 to 1 M sodium acetate was used to separate the phosphodiesterase and recover 24 5-ml fractions. Each of the fractions was measured for the cAMP phosphodiesterase activity.
2) The test compound was reacted at a desired concentration in a reaction mixture containing 20 mM tris-HCl (pH 7.5), 1 mM MgCl2, 100 μM EDTA, 330 μg/ml calf serum albumin, 10 μg/ml 5′-nucleotidase, 0.4 μCi ^3H-cAMP ([…] cAMP) and the type IV phosphodiesterase stored solution at 30° C. for 30 minutes. QAE-Sephadex suspended in 10 mM of hepes-Na (pH-7.0) was added to the reaction mixture which was then allowed to stand for 5 minutes, then the supernatant was obtained, QAE-Sephadex was further added, to the supernatant, and was allowed to stand for 5 minutes, then the supernatant was obtained and measured for radioactivity.

| Compound | IC50 [1] | IC50 [2] |
| --- | --- | --- |
| O=C(Nc1ccccc1)c1cn(-c2ccc(F)cc2)c2ncccc2c1=O [Example 67, N-phenyl-1-(4-fluorophenyl)-1,4-dihydro[1,8]naphthylidin-4-one-3-carboxamide] | 700 nM | 60 nM |
| Cc1cccc(NC(=O)c2cn(-c3ccc(F)cc3)c3ncccc3c2=O)c1 [Example 70, 1-(4-Fluororhenyl)-N-(3-tolyl)-1,4-dihydro[1,8]naohthylidin-4-one-3-carboxamide] | 1000 nM | 610 nM |
| O=C(Nc1ccccc1O)c1cn(-c2ccc(F)cc2)c2ncccc2c1=O [Example 73, 1-(4-Fluorophenyl)-N-(2-hydroxyphenuyl)-1,4-dihydro[1,8]naphthylidin-4-one-3-carboxamide] | 1000 nM | 810 nM |
| O=C(Nc1cccc(O)c1)c1cn(-c2ccc(F)cc2)c2ncccc2c1=O [Example 74, 1-(4-Fluorophenyl)-N-(3-hydroxythenyl)-1,4-dihydro[1,8]naphthylidin-4-one-3-carboxamide] | 400 nM | 420 nM |
| O=C(Nc1cccc(CO)c1)c1cn(-c2ccc(F)cc2)c2ncccc2c1=O [Example 79, 1-(4-fluorophenyl)-N-(3-hydroxymethylphenyl)-1,4-dihydro[1,8]naohthylidin-4-one-3-carboxamide] | 300 nM | 55 nM |
| CC(=O)c1cccc(NC(=O)c2cn(-c3ccc(F)cc3)c3ncccc3c2=O)c1 [Example 81, N-(3-acetophenyl)-1-(4-fluorophenyl)-1,4-dihydro[1,8]naphthylidin-4-one-3-carboxamide] | 500 nM | 110 nM |
| O=C(O)c1cccc(NC(=O)c2cn(-c3ccc(F)cc3)c3ncccc3c2=O)c1 [Example 86, 3-[{[1-(4-Fluorophenyl)-1,4-dihydro[1,8]naohthylidin-4-one-3-yl]carbonyl}amino]benzoic Acid] | 400 nM | 32 nM |
| NC(=O)c1cccc(NC(=O)c2cn(-c3ccc(F)cc3)c3ncccc3c2=O)c1 [Example 87, N-[3-(aminocarbonyl)phenyl]-1-(4-fluorophenyl)-1,4-dihydro[1,8]naphthylidin-4-one-3-carboxamide] | 200 nM | 72 nM |
| Nc1ccccc1NC(=O)c1cn(-c2ccc(F)cc2)c2ncccc2c1=O [Example 90, N-(2-aminophenyl)-1-(4-fluorophenyl)-1,4-dihydro[1,8]naphthylidin-4-one-3-carboxamide] | 500 nM | 96 nM |
| Nc1ccc(NC(=O)c2cn(-c3ccc(F)cc3)c3ncccc3c2=O)cc1 [Example 92, N-(4-aminophenyl)-1-(4-fluorophenyl)-1,4-dihydro[1,8]naphthylidin-4-one-3-carboxamide] | 200 nM | 140 nM |
| O=C(Nc1cccc([N+](=O)[O-])c1)c1cn(-c2ccc(F)cc2)c2ncccc2c1=O [Example 94, 1-(4-Fluorophenyl)-N-(3-nitrophenyl)-1,4-dihydro[1,8]naphthylidin-4-one-3-carboxamide] | 500 nM | 350 nM |
| O=C(Nc1ccc(F)cc1)c1cn(-c2ccc(F)cc2)c2ncccc2c1=O [Example 98, 1,N-bis-(4-fluorophenyl)-1,4-dihydro[1,8]naphthylidin-4-one-3-carboxamide] | 1000 nM | 160 nM |
| O=C(Nc1cccnc1Cl)c1cn(-c2ccc(F)cc2)c2ncccc2c1=O [Example 105, N-(2-Chloropyridin-3-yl)-1-(4-fluorophenyl)-1,4-dihydro[1,8]naphthylidin-4-one-3-carboxamide] | 400 nM | 85 nM |
| O=C(Nc1ccncn1)c1cn(-c2ccc(F)cc2)c2ncccc2c1=O [Example 107, 1-(4-Fluorophenyl)-N-(4-pyrimidyl)-1,4-dihydro[1,8]naphthylidin-4-one-3-carboxamide] | 1000 nM | 520 nM |
| O=C(Nc1c(Cl)ncnc1Cl)c1cn(-c2ccc(F)cc2)c2ncccc2c1=O [Example 108, 1-(4-Fluorophenyl)-N-(4,6-dichloropyrimidine-5-yl)-1,4-dihydro[1,8]naphthylidin-4-one-3-carboxamide] | 1000 nM | 4.6 nM |
| O=C(Nc1cnccn1)c1cn(-c2ccc(F)cc2)c2ncccc2c1=O [Example 109, 1-(4-Fluorophenyl)-N-pyrazinyl-1,4-dihydro[1,8]naphthylidin-4-one-3-carboxamide] | 400 nM | 400 nM |

Results, then the compound that gave them:

| IC50 [1] | IC50 [2] | Compound |
| --- | --- | --- |
| 100 nM | 13 nM | Cc1ccccc1NC(=O)c1cn(-c2ccc(F)cc2)c2ncccc2c1=O [Example 69, 1-(4-Fluorophenyl)-N-(2-tolyl)-1,4-dihydro[1,8]naphthylidin-4-one-3-carboxamide] |
| 10 nM | 180 nM | Cc1cccc(C)c1NC(=O)c1cn(-c2ccc(F)cc2)c2ncccc2c1=O [Example 72, 1-(4-Fluorophenyl)-N-(2,6-xylidyl)-1,4-dihydro[1,8]naphthylidin-4-one-3-carboxamide] |
| 200 nM | 100 nM | O=C(Nc1ccc(O)cc1)c1cn(-c2ccc(F)cc2)c2ncccc2c1=O [Example 75, 1-(4-Fluorophenyl)-N-(4-hydroxyhenyl)-1,4-dihydro[1,8]naphthylidin-4-one-3-arboxamide] |
| 100 nM | 180 nM | COc1cccc(NC(=O)c2cn(-c3ccc(F)cc3)c3ncccc3c2=O)c1 [Example 77, 1-(4-Fluorophenyl)-N-(3-methoxyphenyl)-1,4-dihydro[1,8]naphthylidin-4-one-3-carboxamide] |
| 100 nM | 110 nM | CC(=O)c1ccccc1NC(=O)c1cn(-c2ccc(F)cc2)c2ncccc2c1=O [Example 80, N-(2-acetophenyl)-1-(4-fluorophenyl)-1,4-dihydro[1,8]naphthylidin-4-one-3-carboxamide] |
| 100 nM | 52 nM | Nc1cccc(NC(=O)c2cn(-c3ccc(F)cc3)c3ncccc3c2=O)c1 [Example 91, N-(3-aminophenyl)-1-(4-fluorophenyl)-1,4-dihydro[1,8]naphthylidin-4-one-3-carboxamide] |
| 30 nM | 16 nM | O=C(Nc1ccccc1[N+](=O)[O-])c1cn(-c2ccc(F)cc2)c2ncccc2c1=O [Example 93, 1-(4-fluorophenyl)-N-(2-nitrophenyl)-1,4-dihydro[1,8]naohthylidin-4-one-3-carboxamide] |
| 0.3 nM | 19 nM | Cc1cnccc1NC(=O)c1cn(-c2ccc(F)cc2)c2ncccc2c1=O [Example 104, 1-(4-Fluorophenyl)-N-(3-methylpyridin-4-yl)-1,4-dihydro[1,8]naphthylidin-4-one-3-carboxamide] |
| 60 nM | 44 nM | O=C(Nc1cccc2ncccc12)c1cn(-c2ccc(F)cc2)c2ncccc2c1=O [Example 113, 1-(4-Fluorophenyl)-N-(5-quinolyl)-1,4-dihydro [1,8]naphthylidin-4-one-3-carboxamide] |
| 100 nM | 210 nM | O=C(Nc1cccc2cnccc12)c1cn(-c2ccc(F)cc2)c2ncccc2c1=O [Example 114] |
| 0.4 nM | 0.2 nM | O=C(Nc1c(Cl)cncc1Cl)c1cn(-c2ccccc2)c2ncccc2c1=O [Example 118, N-(3,5-Dichloropyridin-4-yl)-1-phenyl-1,4-dihydro[1,8]naphthylidin-4-one-3-carboxamide] |

From US6541480B2, “1-aryl-1,8-naphthylidin-4-one derivative as type IV phosphodiesterase inhibitor” (Suntory Limited, priority 1997, dated 2003)
